Broadly, the EC50 is the concentration at which the effect is half-maximal. High values mean a less potent agent, low ones a more potent agent.

The experiment concerns the target T1, human RORgT (Homo sapiens, UniProt P51449).
T1 construct: expressed in transfected cells; host or cells: engineered Jurkat cells (Jurkat pEx/Gal/hRORγ CLBD/HYG pG5luc/blast)
T1 sequence (P51449 267-516): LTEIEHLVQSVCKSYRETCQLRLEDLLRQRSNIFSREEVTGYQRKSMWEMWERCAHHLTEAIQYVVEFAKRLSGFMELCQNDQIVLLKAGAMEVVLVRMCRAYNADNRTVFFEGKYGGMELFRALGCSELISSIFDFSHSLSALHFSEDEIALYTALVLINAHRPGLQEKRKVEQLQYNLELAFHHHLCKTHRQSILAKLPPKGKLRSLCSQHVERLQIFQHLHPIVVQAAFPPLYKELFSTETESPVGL
In words: RORgT Gal4 Luciferase Reporter Gene Assay. Format: cell-based. The conditions noted are these: engineered Jurkat cells overexpressing RORgT (LBD or full length) fused with Gal4 Luc reporter; 18 hours incubation. (Reporter assays use an easily measured gene product as a stand-in for the process of interest.)
For the molecule `O=S(=O)(c1ccc(F)cc1)C1(c2ccc(OCc3ccccc3F)cc2)CCCC1` [Example 7, 1-[1-(4-fluorobenzenesulfonyl)cyclopentyl]-4-[(2-fluorophenyl)methoxy]benzene], the EC50 is 0.723 µM.
`O=C(O)[C@H]1CC[C@H](C(=O)N2CC[C@](c3ccc(OCc4c(F)cccc4C(F)(F)F)cc3)(S(=O)(=O)c3ccc(F)cc3)C2)CC1` [Example 42, (1r,4r)-4-[(3R)-3-(4-{[2-fluoro-6-(trifluoromethyl)phenyl]methoxy}phenyl)-3-(4-fluorobenzenesulfonyl)pyrrolidine-1-carbonyl]cyclohexane-1-carboxylic acid] yielded a half-maximal effective concentration (EC50) of 0.047 µM.
`O=S(=O)(c1ccccc1)C1(c2ccc(OCc3ccccc3)cc2)CCCC1` [Example 6, 1-[1-(benzenesulfonyl)cyclopentyl]-4-(benzyloxy)benzene]: the response was half-maximal at 0.13 µM (EC50).
In turn, `O=C(O)[C@H]1CC[C@H](C(=O)N2CC[C@](c3ccc(OCc4c(F)cccc4C(F)(F)F)cc3)(S(=O)(=O)c3ccccc3)C2)CC1` [Example 41, (1r,4r)-4-[(3R)-3-(benzenesulfonyl)-3-(4-{[2-fluoro-6-(trifluoromethyl)phenyl]methoxy}phenyl)pyrrolidine-1-carbonyl]cyclohexane-1-carboxylic acid] returned an EC50 of 0.088 µM.
`O=C(N1CC[C@](c2ccc(OCc3c(F)cccc3C(F)(F)F)cc2)(S(=O)(=O)c2ccccc2)C1)C1(O)CCS(=O)(=O)CC1` [Example 40, 4-[(3R)-3-(benzenesulfonyl)-3-(4-{[2-fluoro-6-(trifluoromethyl)phenyl]methoxy}phenyl)pyrrolidine-1-carbonyl]-4-hydroxy-1λ^6-thiane-1,1-dione] came in with a concentration for a half-maximal effect (EC50) of 0.018 µM.
In the case of `O=C(Cc1ccncc1)N1CCC(c2ccc(OCc3c(Cl)cccc3Cl)cc2)(S(=O)(=O)c2ccccc2)C1` (stereo not shown) [Example 26, 1-[3-(benzenesulfonyl)-3-{4-[(2,6-dichlorophenyl)methoxy]phenyl}pyrrolidin-1-yl]-2-(pyridin-4-yl)ethan-1-one], the 50% effective concentration (EC50) came out at 0.077 µM.
Regarding `O=S(=O)(c1ccccc1)C1(c2ccc(OCc3ccccc3F)cc2)CCCC1` [Example 13, 1-[1-(benzenesulfonyl)cyclopentyl]-4-[(2-fluorophenyl)methoxy]benzene], the concentration for a half-maximal effect (EC50) was determined as 0.203 µM.
With `O=S(=O)(c1cccc(Cl)c1)C1(c2ccc(OCc3ccccc3)cc2)CCCC1` [Example 5, 1-(benzyloxy)-4-[1-(3-chlorobenzenesulfonyl)cyclopentyl]benzene], a half-maximal response (EC50) required 0.24 µM.
Then `O=C(C1CCS(=O)(=O)C1)N1CCC(c2ccc(OCc3ccccc3)cc2)(S(=O)(=O)c2ccc(F)cc2)C1` (stereo not shown) [Example 19, 3-{3-[4-(benzyloxy)phenyl]-3-(4-fluorobenzenesulfonyl)pyrrolidine-1-carbonyl}-1λ^6-thiolane-1,1-dione], with 0.672 µM; and `O=C1NC(=O)C(CC(=O)N2CCC(c3ccc(OCc4ccccc4)cc3)(S(=O)(=O)c3ccc(F)cc3)C2)S1` (stereo not shown) [Example 20, 5-(2-{3-[4-(benzyloxy)phenyl]-3-(4-fluorobenzenesulfonyl)pyrrolidin-1-yl}-2-oxoethyl)-1,3-thiazolidine-2,4-dione], with 0.81 µM.
